For one data set, the target named is PSMA (Homo sapiens, UniProt Q04609). Kind of data set: fluorescence-based PSMA inhibition assay (Example 1). The class given is biochemical.
A short description of data set [1]: r1 relaxivity of solution phantoms at 9.4 T and 25° C. The format is physicochemical. How it is done:
(§1) When imaged at 9.4 T and 25° C., solution phantoms indicated r1 relaxivities in PBS that vary between 3.0 and 6.2 mM^−1 s^−1 per Gd(III) and between 3.0 and 12.5 mM-1 s-1 per contrast agent (Table 1). As expected, Gd1 has the lowest relaxivity followed by Gd2 and Gd3 at 25° C. To determine selectivity and specificity of the agents, human prostate cancer cells genetically modified to express high amounts of PSMA (PC3 PIP) and the corresponding wild-type, PSMA-non-expressing cells (PC3 flu) were selected as negative control (Banerjee, Angew., 2001). […] Enhancement and T1 measurements by means of MRI of the cell pellets in the presence and absence of 50 μM Gd3 indicated higher enhancement and difference in T1 relaxation rates, ΔR1 between Gd3 treated PIP cells and the control PIP cells as compared to the Gd3-treated flu cells and the control flu control cells, after removal of the Gd3 from the cell system by washing with standard medium (FIG. 4B and FIG. 4C).

In data set [2] the test system is PSMA+ PC3 PIP and PSMA− PC3 flu cells. Kind of data set: T1-weighted MR imaging of cell pellets. The format is cell-based, human. The note with it: PSMA+ PC3 PIP vs PSMA− PC3 flu cell pellets. How it is done: FIG. 4A through FIG. 4C show T1 contrast enhancement generated by Gd3 in an isogenic human PC3 prostate cancer cell pair, PSMA+ PIP and PSMA− flu cells; (A) Color coded T1 maps of PIP and flu cells. Relaxation rates were determined at 25° C. at 9.4 T; (B) Quantification of T1 changes (ΔT1) in PIP and flu cells (n=4, P<0.05) following treatment with Gd3; (C) cellular uptake of Gd3 in PIP and flu cells.
as §1

The test system of data set [3] is PSMA+ PC3 PIP cells. In words: ICP-MS analysis of Gd in cell pellets. The class given is cell-based, human. An excerpt: Thus, the difference between ΔR1 of the PIP cells and that of the flu cells reflects the change due to the specific Gd3 binding to PSMA in the PIP cells.
Data set [4] has as its system PSMA+ PC3 PIP cells. Kind of data set: cell internalization assay (ICP-MS). The class given is cell-based, human. Conditions: for percent of incubated dose internalized: PSMA+ PC3 PIP cells. How it is done: FIG. 6A and FIG. 6B show the % ID of Gd3 cell surface bound (A) and internalized (B) at 1, 4 and 24 h;
Moreover, slightly higher non-specific uptake was associated with Gd2 in PSMA− PC3 flu cells, which might be related to the lower K1 value of this agent compared to Gd1. As a further check on cellular uptake and internalization, a dual modality Gd monomeric contrast agent labeled with Rhodamine-Red™-X was prepared to confirm the PSMA-mediated internalization of this class of contrast agents (FIG. 5D).
A time-dependent internalization study was performed for Gd3 (FIG. 6A and FIG. 6B) after 1, 4 and 24 h of incubation. […] A similar amount of Gd (˜33-37% ID) was associated with the cell membrane at those same time-points.

A further data set deals with PSMA− PC3 flu cells. In words: cell viability, MTS assay. The class given is cell-based, human. Conditions: 24 h, up to Gd(III) concentration of 1 mM. The method, then:
Prior to evaluating Gd3 for live mouse imaging, its biocompatibility was examined using a cell proliferation assay. Various concentrations of Gd3 were incubated with PSMA+PC3 PIP and PSMA− PC3 flu cells, for 24 h. […] However, Gd(III) concentrations of >1 mM affected PSMA+PC3 PIP cell viability (FIG. 8). The observed level of PSMA+PC3 PIP cell death may be attributable to high cell internalization of Gd3, and the long incubation time employed (24 h).
A general note: Tetrazolium dyes change colour on reduction, which living cells bring about.

For data set [5], the system named is PSMA+ PC3 PIP cells. Kind of data set: cell viability, MTS assay. The note with it: 24 h. The format is cell-based, human.
Data set [6] concerns PSMA+ PC3 PIP and PSMA− PC3 flu tumor xenografts. The class given is in vivo.
Setting [7] is: 0.05 mmol/Kg i.v., first 20 min after injection.

pKi: −log10 of the molar value. Like-named read-outs stand apart in the source and are kept apart here.

The values below come from US10683272B2 (THE JOHNS HOPKINS UNIVERSITY, priority 2014, dated 2020).

Sequence of PSMA (Q04609 whole entry): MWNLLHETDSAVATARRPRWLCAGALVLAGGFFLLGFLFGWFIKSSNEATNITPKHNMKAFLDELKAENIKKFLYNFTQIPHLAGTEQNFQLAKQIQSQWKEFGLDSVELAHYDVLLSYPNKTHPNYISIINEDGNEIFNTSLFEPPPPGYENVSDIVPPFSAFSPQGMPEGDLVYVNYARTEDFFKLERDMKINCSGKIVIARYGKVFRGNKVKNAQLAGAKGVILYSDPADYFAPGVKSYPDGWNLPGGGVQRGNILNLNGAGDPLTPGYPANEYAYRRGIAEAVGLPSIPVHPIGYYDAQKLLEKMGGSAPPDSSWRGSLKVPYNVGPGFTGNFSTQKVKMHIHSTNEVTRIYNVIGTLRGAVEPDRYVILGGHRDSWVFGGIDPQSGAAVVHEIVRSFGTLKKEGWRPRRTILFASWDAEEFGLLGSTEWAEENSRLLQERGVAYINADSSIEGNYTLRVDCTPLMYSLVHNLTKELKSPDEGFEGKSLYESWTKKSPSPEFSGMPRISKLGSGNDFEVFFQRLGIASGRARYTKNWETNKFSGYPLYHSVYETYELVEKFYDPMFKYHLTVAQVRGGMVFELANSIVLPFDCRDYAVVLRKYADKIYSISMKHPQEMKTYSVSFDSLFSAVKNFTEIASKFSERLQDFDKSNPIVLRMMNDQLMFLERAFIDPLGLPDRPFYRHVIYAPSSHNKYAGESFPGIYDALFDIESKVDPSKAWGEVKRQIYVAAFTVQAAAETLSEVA

The substance “(3S,7S)-5,13,20,28-tetraoxo-32-(2,4,6-tris(1-(2-hydroxy-3-(4,7,10-tris(carboxymethyl)-1,4,7,10-tetraazacyclododecan-1-yl)propyl)-1H-1,2,3-triazol-4-yl)phenoxy)-4,6,12,21,27-pentaazadotriacontane-1,3,7,22-tetracarboxylic acid, trigadolinium(III) salt [Gd3]” had a pKi at PSMA of 8.14. Besides, the “r1 relaxivity, ionic (per Gd(III))” value in data set [1] (9.4 T, 25° C., PBS) was found to be 3.3 mM⁻¹ s⁻¹. In addition, the “r1 relaxivity, molecular (per contrast agent)” value in data set [1] (9.4 T, 25° C., PBS) is 9.81 mM⁻¹ s⁻¹. Also, in data set [1] (column T1 of Table 1), the r1 relaxivity amounted to 12.47 mM⁻¹ s⁻¹. For the same substance, the “T1-weighted MR contrast of cell pellets” value in data set [2] is recorded as “significant MR contrast enhancement in PSMA+PC3 PIP cells”. Also, in the data set on PSMA+ PC3 PIP cells [3], the “estimated intracellular Gd(III) concentration” value was approximately 22.82 µM. For the same substance, in the data set with PSMA+ PC3 PIP cells [4] (PSMA+ PC3 PIP cells, 1, 4 and 24 h), the “amount of Gd associated with the cell membrane” value is reported as 33-37 % ID. In addition, the “percent of incubated dose internalized” value in the data set with PSMA+ PC3 PIP cells [4] (1 h incubation) was 28.30±0.47 % ID; in the data set with PSMA+ PC3 PIP cells [4] (4 h incubation) it was 39.92±3.59 % ID; in the data set with PSMA+ PC3 PIP cells [4] (24 h incubation), approximately 89.69±3.90 % ID. The cell viability in the data set with PSMA− PC3 flu cells is recorded as approximately 90%. Also, the “Gd(III) concentrations that affected cell viability” value with PSMA+ PC3 PIP cells [5] is more than 1 mM. Further, the “contrast enhancement at PIP tumor” value in data set [6] (0.05 mmol/Kg i.v., 40 min post-injection) was determined as 36%; in data set [6] (0.05 mmol/Kg i.v., until 1.5 h post injection), 30%. Besides, in data set [6] (setting [7]), the “lowering of T1 value, PIP tumor” value stood at 0.57 s. Besides, the “lowering of T1 value, PSMA flu tumor” value in data set [6] (setting [7]) worked out at 0.63 s. In addition, in data set [6] (setting [7]), the “lowering of T1 value, muscle” value was 0.261 s. Moreover, the “highest contrast enhancement, PSMA− PC3 flu tumors” value in data set [6] (0.06 mmol/kg i.v., 20 min post-injection) was approximately 24%. In addition, the “enhancement in R1, PSMA+ PC3 PIP tumor” value in data set [6] (0.06 mmol/kg i.v., 190 min after injection) amounted to 24%; in data set [6] (0.06 mmol/kg i.v., until 90 min), 29%. The “ΔR1, PSMA− PC3 flu tumors” value in data set [6] (0.06 mmol/kg i.v., after 40 min) was less than 20%. Besides, the “average enhancement in R1 values, PSMA+ PC3 PIP tumor” value in data set [6] (0.06 mmol/kg i.v., first 40 to 60 min) is 36%. In addition, the “minimum T1 value of PSMA+ PC3 PIP tumor” value in data set [6] (0.06 mmol/kg i.v., first 40 to 60 min, n=4) was 1,819±76 ms.

For orientation: pKi means the negative decadic logarithm of the Ki, by convention in mol/L. Low readings indicate a high Ki, high ones a low Ki. Broadly, the cell viability is the share of living cells, or the viability signal relative to a control. High values mean better survival, low ones a greater loss of cells.
